Experimental data published in patent publication US20260022142A1, “MACROCYCLIC IMMUNOMODULATORS” (Bristol-Myers Squibb Company, priority 2022, published 2026).
Bridge positions count the residues as written; N and C are the ends. Square brackets hold non-standard residues; d marks the D form. Peptide text beside a SMILES is read from it. * marks the point of attachment. ξ: configuration not given here. Bip = N[C@@H](Cc1ccc(-c2ccccc2)cc1)C(=O)O; Cha = N[C@@H](CC1CCCCC1)C(=O)O; Thr(3ξ) = CC(O)[C@H](N)C(=O)O; Carboxymethyl = O=C(O)C*; Orn = NCCC[C@H](N)C(=O)O; Aun = NCCCCCCCCCCC(=O)O; Dab = NCC[C@H](N)C(=O)O; Dap = NC[C@H](N)C(=O)O; AEEA = NCCOCCOCC(=O)O

Target: T1, PD-1/PD-L1 interaction (PE-labeled human PD-L1-Ig binding to Jurkat cell line over-expressing human PD-1) (Homo sapiens, UniProt Q15116)
T1 construct: expressed in transfected cells; host or cells: Jurkat
T1 sequence (Q15116 25-288): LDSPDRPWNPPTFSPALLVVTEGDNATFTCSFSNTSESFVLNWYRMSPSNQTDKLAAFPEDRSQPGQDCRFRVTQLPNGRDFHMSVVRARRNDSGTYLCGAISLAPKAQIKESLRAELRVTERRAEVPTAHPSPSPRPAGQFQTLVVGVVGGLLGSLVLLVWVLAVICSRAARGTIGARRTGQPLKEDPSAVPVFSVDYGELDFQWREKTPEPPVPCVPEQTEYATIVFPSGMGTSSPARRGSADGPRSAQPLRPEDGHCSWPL
Assay: Jurkat-PD-1 Cell Binding High-Content Screening Assay (CBA)
Assay type: cell-based
Settings: Jurkat cell line over-expressing human PD-1; PE-labeled PD-L1-Ig 20 nM final; read-out: Jurkat hPD1-PDL1 IC50
How it was run: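 Binding of fluorescent PD-L1-Ig (20 nM final) to Jurkat-PD-1 cells was measured by automated imaging after 1 h, following a 2 h compound pre-treatment at 37° C.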

| SMILES | IC50 [nM] |
| --- | --- |
| CC(C)C[C@@H]1NC(=O)[C@H](Cc2c[nH]c3ccccc23)NC(=O)[C@H](CC(=O)O)NC(=O)[C@H](Cc2ccc(OCC(=O)O)cc2)NC(=O)[C@H](CN)NC(=O)CSC[C@@H](C(=O)N[C@@H](CCN)C(=O)NCCCCCCCCCCC(=O)O)NC(=O)[C@H](CO)NC(=O)[C@H](C(C)O)NC(=O)[C@H](CC2CCCCC2)NC(=O)[C@H](CCN)NC(=O)[C@@H](CC(C)C)NC(=O)[C@H](CCCN)NC(=O)[C@H](C(C)C)NC(=O)[C@H](Cc2ccc(-c3ccccc3)cc2)NC1=O (stereo partly drawn) [Compound 3685] ({CH2CO}-[Dap]Y(Carboxymethyl)DWL[Bip]V[Orn][dL][Dab][Cha][Thr(3ξ)]SC[Dab][Aun]-OH; thioether N-14) | 30.2 |
| CC(C)C[C@@H]1NC(=O)[C@H](Cc2c[nH]c3ccccc23)NC(=O)[C@H](CC(=O)O)NC(=O)[C@H](Cc2ccc(OCC(=O)O)cc2)NC(=O)[C@H](CN)NC(=O)CSC[C@@H](C(=O)N[C@@H](CCN)C(=O)NCCCCCCCCCCC(=O)O)NC(=O)[C@H](Cc2cnc[nH]2)NC(=O)[C@H](C(C)C)NC(=O)[C@H](CC2CCCCC2)NC(=O)[C@H](CCN)NC(=O)[C@@H](CC(C)C)NC(=O)[C@H](CCCN)NC(=O)[C@H](C(C)C)NC(=O)[C@H](Cc2ccc(-c3ccccc3)cc2)NC1=O [Compound 3688] ({CH2CO}-[Dap]Y(Carboxymethyl)DWL[Bip]V[Orn][dL][Dab][Cha]VHC[Dab][Aun]-OH; thioether N-14) | 17.3 |
| CC(C)C[C@@H]1NC(=O)[C@H](Cc2c[nH]c3ccccc23)NC(=O)[C@H](CC(=O)O)NC(=O)[C@H](Cc2ccc(OCC(=O)O)cc2)NC(=O)[C@H](CN)NC(=O)CSC[C@@H](C(=O)N[C@@H](CCN)C(=O)NCCCCCCCCCCC(=O)O)NC(=O)[C@H](Cc2cnc[nH]2)NC(=O)[C@H](C(C)O)NC(=O)[C@H](CC2CCCCC2)NC(=O)[C@H](CCN)NC(=O)[C@@H](CC(C)C)NC(=O)[C@H](CCCN)NC(=O)[C@H](C(C)C)NC(=O)[C@H](Cc2ccc(-c3ccccc3)cc2)NC1=O (stereo partly drawn) [Compound 3689] ({CH2CO}-[Dap]Y(Carboxymethyl)DWL[Bip]V[Orn][dL][Dab][Cha][Thr(3ξ)]HC[Dab][Aun]-OH; thioether N-14) | 29.9 |
| CC(C)C[C@@H]1NC(=O)[C@H](Cc2c[nH]c3ccccc23)NC(=O)[C@H](CC(=O)O)NC(=O)[C@H](Cc2ccc(OCC(=O)O)cc2)NC(=O)[C@H](C(C)O)NC(=O)CSC[C@@H](C(=O)N[C@@H](CCN)C(=O)NCCCCCCCCCCC(=O)O)NC(=O)[C@H](Cc2cnc[nH]2)NC(=O)[C@H](C(C)O)NC(=O)[C@H](CC2CCCCC2)NC(=O)[C@H](CCN)NC(=O)[C@@H](CC(C)C)NC(=O)[C@H](CCCN)NC(=O)[C@H](C(C)C)NC(=O)[C@H](Cc2ccc(-c3ccccc3)cc2)NC1=O (stereo partly drawn) [Compound 3690] ({CH2CO}-[Thr(3ξ)]Y(Carboxymethyl)DWL[Bip]V[Orn][dL][Dab][Cha][Thr(3ξ)]HC[Dab][Aun]-OH; thioether N-14) | 38.8 |
| CC(C)C[C@@H]1NC(=O)[C@H](Cc2c[nH]c3ccccc23)NC(=O)[C@H](CC(=O)O)NC(=O)[C@H](Cc2ccc(OCC(=O)O)cc2)NC(=O)[C@H](C(C)O)NC(=O)CSC[C@@H](C(=O)NCCOCCOCC(=O)NCCCCCCCCCCC(=O)O)NC(=O)[C@H](Cc2cnc[nH]2)NC(=O)[C@H](C(C)O)NC(=O)[C@H](CC2CCCCC2)NC(=O)[C@H](CCN)NC(=O)[C@@H](CC(C)C)NC(=O)[C@H](CCCN)NC(=O)[C@H](C(C)C)NC(=O)[C@H](Cc2ccc(-c3ccccc3)cc2)NC1=O (stereo partly drawn) [Compound 3691] ({CH2CO}-[Thr(3ξ)]Y(Carboxymethyl)DWL[Bip]V[Orn][dL][Dab][Cha][Thr(3ξ)]HC[AEEA][Aun]-OH; thioether N-14) | 71.3 |
| CC(C)C[C@@H]1NC(=O)[C@H](Cc2c[nH]c3ccccc23)NC(=O)[C@H](CC(=O)O)NC(=O)[C@H](Cc2ccc(OCC(=O)O)cc2)NC(=O)[C@H](CN)NC(=O)CSC[C@@H](C(=O)NCCOCCOCC(=O)NCCCCCCCCCCC(=O)O)NC(=O)[C@H](Cc2cnc[nH]2)NC(=O)[C@H](C(C)O)NC(=O)[C@H](CC2CCCCC2)NC(=O)[C@H](CCN)NC(=O)[C@@H](CC(C)C)NC(=O)[C@H](CCCN)NC(=O)[C@H](C(C)C)NC(=O)[C@H](Cc2ccc(-c3ccccc3)cc2)NC1=O (stereo partly drawn) [Compound 3692] ({CH2CO}-[Dap]Y(Carboxymethyl)DWL[Bip]V[Orn][dL][Dab][Cha][Thr(3ξ)]HC[AEEA][Aun]-OH; thioether N-14) | 58.4 |

Now from value to compound:

| IC50 [nM] | SMILES |
| --- | --- |
| 51.4 | CC(C)C[C@@H]1NC(=O)[C@H](Cc2c[nH]c3ccccc23)NC(=O)[C@H](CC(=O)O)NC(=O)[C@H](Cc2ccc(OCC(=O)O)cc2)NC(=O)[C@H](CN)NC(=O)CSC[C@@H](C(=O)N[C@@H](CCN)C(=O)NCCCCCCCCCCC(=O)O)NC(=O)[C@H](CCCN)NC(=O)[C@H](C(C)O)NC(=O)[C@H](CC2CCCCC2)NC(=O)[C@H](CCN)NC(=O)[C@@H](CC(C)C)NC(=O)[C@H](CCCN)NC(=O)[C@H](Cc2ccc(O)cc2)NC(=O)[C@H](Cc2ccc(-c3ccccc3)cc2)NC1=O (stereo partly drawn) [Compound 3682] ({CH2CO}-[Dap]Y(Carboxymethyl)DWL[Bip]Y[Orn][dL][Dab][Cha][Thr(3ξ)][Orn]C[Dab][Aun]-OH; thioether N-14) |
| 118 | CC(C)C[C@@H]1NC(=O)[C@H](Cc2c[nH]c3ccccc23)NC(=O)[C@H](CC(=O)O)NC(=O)[C@H](Cc2ccc(OCC(=O)O)cc2)NC(=O)[C@H](C(C)O)NC(=O)CSC[C@@H](C(=O)N[C@@H](CCN)C(=O)NCCCCCCCCCCC(=O)O)NC(=O)[C@H](CCN)NC(=O)[C@H](C(C)O)NC(=O)[C@H](CC2CCCCC2)NC(=O)[C@H](CCN)NC(=O)[C@@H](CC(C)C)NC(=O)[C@H](CCCN)NC(=O)[C@H](Cc2ccc(O)cc2)NC(=O)[C@H](Cc2ccc(-c3ccccc3)cc2)NC1=O (stereo partly drawn) [Compound 3683] ({CH2CO}-[Thr(3ξ)]Y(Carboxymethyl)DWL[Bip]Y[Orn][dL][Dab][Cha][Thr(3ξ)][Dab]C[Dab][Aun]-OH; thioether N-14) |
| 77.1 | CC(C)C[C@@H]1NC(=O)[C@H](Cc2c[nH]c3ccccc23)NC(=O)[C@H](CC(=O)O)NC(=O)[C@H](Cc2ccc(OCC(=O)O)cc2)NC(=O)[C@H](C(C)O)NC(=O)CSC[C@@H](C(=O)N[C@@H](CCN)C(=O)NCCCCCCCCCCC(=O)O)NC(=O)[C@H](CCCN)NC(=O)[C@H](C(C)O)NC(=O)[C@H](CC2CCCCC2)NC(=O)[C@H](CCN)NC(=O)[C@@H](CC(C)C)NC(=O)[C@H](CCCN)NC(=O)[C@H](Cc2ccc(O)cc2)NC(=O)[C@H](Cc2ccc(-c3ccccc3)cc2)NC1=O (stereo partly drawn) [Compound 3684] ({CH2CO}-[Thr(3ξ)]Y(Carboxymethyl)DWL[Bip]Y[Orn][dL][Dab][Cha][Thr(3ξ)][Orn]C[Dab][Aun]-OH; thioether N-14) |
| 27.6 | CC(C)C[C@@H]1NC(=O)[C@H](Cc2c[nH]c3ccccc23)NC(=O)[C@H](CC(=O)O)NC(=O)[C@H](Cc2ccc(OCC(=O)O)cc2)NC(=O)[C@H](C(C)O)NC(=O)CSC[C@@H](C(=O)N[C@@H](CCN)C(=O)NCCCCCCCCCCC(=O)O)NC(=O)[C@H](CCCN)NC(=O)[C@H](C(C)O)NC(=O)[C@H](CC2CCCCC2)NC(=O)[C@H](CCN)NC(=O)[C@@H](CC(C)C)NC(=O)[C@H](CCCN)NC(=O)[C@H](C(C)C)NC(=O)[C@H](Cc2ccc(-c3ccccc3)cc2)NC1=O (stereo partly drawn) [Compound 3686] ({CH2CO}-[Thr(3ξ)]Y(Carboxymethyl)DWL[Bip]V[Orn][dL][Dab][Cha][Thr(3ξ)][Orn]C[Dab][Aun]-OH; thioether N-14) |
| 19.9 | CC(C)C[C@@H]1NC(=O)[C@H](Cc2c[nH]c3ccccc23)NC(=O)[C@H](CC(=O)O)NC(=O)[C@H](Cc2ccc(OCC(=O)O)cc2)NC(=O)[C@H](CN)NC(=O)CSC[C@@H](C(=O)N[C@@H](CCN)C(=O)NCCCCCCCCCCC(=O)O)NC(=O)[C@H](CCCN)NC(=O)[C@H](C(C)O)NC(=O)[C@H](CC2CCCCC2)NC(=O)[C@H](CCN)NC(=O)[C@@H](CC(C)C)NC(=O)[C@H](CCCN)NC(=O)[C@H](C(C)C)NC(=O)[C@H](Cc2ccc(-c3ccccc3)cc2)NC1=O (stereo partly drawn) [Compound 3687] ({CH2CO}-[Dap]Y(Carboxymethyl)DWL[Bip]V[Orn][dL][Dab][Cha][Thr(3ξ)][Orn]C[Dab][Aun]-OH; thioether N-14) |
| 59.8 | CC(C)C[C@@H]1NC(=O)[C@H](Cc2c[nH]c3ccccc23)NC(=O)[C@H](CC(=O)O)NC(=O)[C@H](Cc2ccc(OCC(=O)O)cc2)NC(=O)[C@H](CN)NC(=O)CSC[C@@H](C(=O)N[C@@H](CCN)C(=O)NCCCCCCCCCCC(=O)O)NC(=O)[C@H](CCCCN)NC(=O)[C@H](C(C)O)NC(=O)[C@H](CC2CCCCC2)NC(=O)[C@H](CCN)NC(=O)[C@@H](CC(C)C)NC(=O)[C@H](CCCN)NC(=O)[C@H](Cc2ccc(O)cc2)NC(=O)[C@H](Cc2ccc(-c3ccccc3)cc2)NC1=O (stereo partly drawn) [Compound 3693] ({CH2CO}-[Dap]Y(Carboxymethyl)DWL[Bip]Y[Orn][dL][Dab][Cha][Thr(3ξ)]KC[Dab][Aun]-OH; thioether N-14) |
| 72.8 | CC(C)C[C@@H]1NC(=O)[C@H](Cc2c[nH]c3ccccc23)NC(=O)[C@H](CC(=O)O)NC(=O)[C@H](Cc2ccc(OCC(=O)O)cc2)NC(=O)[C@H](C(C)O)NC(=O)CSC[C@@H](C(=O)N[C@@H](CCN)C(=O)NCCCCCCCCCCC(=O)O)NC(=O)[C@H](CCCCN)NC(=O)[C@H](C(C)O)NC(=O)[C@H](CC2CCCCC2)NC(=O)[C@H](CCN)NC(=O)[C@@H](CC(C)C)NC(=O)[C@H](CCCN)NC(=O)[C@H](Cc2ccc(O)cc2)NC(=O)[C@H](Cc2ccc(-c3ccccc3)cc2)NC1=O (stereo partly drawn) [Compound 3694] ({CH2CO}-[Thr(3ξ)]Y(Carboxymethyl)DWL[Bip]Y[Orn][dL][Dab][Cha][Thr(3ξ)]KC[Dab][Aun]-OH; thioether N-14) |
